Experimental data from ChEMBL document CHEMBL1201862, “PubChem BioAssay data set” (2004).
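These data come from cells grown in 96-well plates and exposed to compound for 48 hours at five concentrations. Here, GI50 denotes the concentration required for 50% inhibition of growth.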 Active and inactive are the calls of the source. Cut-off read from the data, not from the text of the source: active = GI50 up to about 1.1 µM and inactive = higher.

Columns and labels:
Experiment in all cases: inhibition of tumour cell growth, NCI panel, 48 h
DU-145 = tested on: DU-145
HCT-116 = tested on: HCT-116
HCT-15 = tested on: HCT-15
HOP-62 = tested on: HOP-62
HT-29 = tested on: HT-29
IGROV-1 = tested on: IGROV-1
MDA-MB-231 = tested on: MDA-MB-231
NCI/ADR-RES = tested on: NCI/ADR-RES
OVCAR-3 = tested on: OVCAR-3
OVCAR-8 = tested on: OVCAR-8
RPMI-8226 = tested on: RPMI-8226
SNB-75 = tested on: SNB-75
SR = tested on: SR
SW-620 = tested on: SW-620
T47D = tested on: T47D
HL-60 = tested on: HL-60
SK-MEL-5 = tested on: SK-MEL-5

| Compound | GI50 (DU-145) | GI50 (HCT-116) | GI50 (HCT-15) [µM] | GI50 (HOP-62) | GI50 (HT-29) | GI50 (IGROV-1) | GI50 (MDA-MB-231) | GI50 (NCI/ADR-RES) | GI50 (OVCAR-3) | GI50 (OVCAR-8) | GI50 (RPMI-8226) | GI50 (SNB-75) | GI50 (SR) | GI50 (SW-620) | GI50 (T47D) | GI50 (HL-60) | GI50 (SK-MEL-5) |
| --- | --- | --- | --- | --- | --- | --- | --- | --- | --- | --- | --- | --- | --- | --- | --- | --- | --- |
| Cc1cc2c(c(C(=O)NCCC(=O)O)c1)Oc1c(cc(C)cc1C(=O)NCCC(=O)O)S2 | > 100 µM (inactive) | > 100 µM (inactive) | > 100 | > 100 µM (inactive) | > 100 µM (inactive) | > 100 µM (inactive) | > 100 µM (inactive) | > 100 µM (inactive) | > 100 µM (inactive) | > 100 µM (inactive) | > 100 µM (inactive) | > 100 µM (inactive) | > 100 µM (inactive) | > 100 µM (inactive) | > 100 µM (inactive) |  |  |
| Cc1nc(C(N)=S)sc1C(=O)C/C(=N/N)C(=O)Nc1cccc(Cl)c1C |  | > 100 µM (inactive) | > 100 | > 100 µM (inactive) | > 100 µM (inactive) | > 100 µM (inactive) | > 100 µM (inactive) | > 100 µM (inactive) | > 100 µM (inactive) | > 100 µM (inactive) | > 100 µM (inactive) | > 100 µM (inactive) | > 100 µM (inactive) | > 100 µM (inactive) | > 100 µM (inactive) | > 100 µM (inactive) | > 100 µM (inactive) |
| Cc1ccc(C[N+](C)(C)N)cc1C | > 10 µM (inactive) | > 10 µM (inactive) | > 10 | > 10 µM (inactive) | > 10 µM (inactive) | > 10 µM (inactive) | > 10 µM (inactive) | > 10 µM (inactive) | > 10 µM (inactive) | > 10 µM (inactive) | > 10 µM (inactive) | > 10 µM (inactive) |  | > 10 µM (inactive) | > 10 µM (inactive) | > 10 µM (inactive) | > 10 µM (inactive) |
| CCCC(=O)N1CCN(c2ccc3c(c2)OC(C)O3)CC1 (stereo unspecified) | > 100 µM (inactive) | > 100 µM (inactive) | > 100 | > 100 µM (inactive) | > 100 µM (inactive) | > 100 µM (inactive) | > 100 µM (inactive) | > 100 µM (inactive) | > 100 µM (inactive) | > 100 µM (inactive) |  | 15.4 µM (inactive) | > 100 µM (inactive) | > 100 µM (inactive) | > 100 µM (inactive) |  | > 100 µM (inactive) |
| Cc1ccc(/C=N/n2c(=O)[nH]c3ccccc3c2=O)cc1 | > 100 µM (inactive) | > 100 µM (inactive) | > 100 | > 100 µM (inactive) | > 100 µM (inactive) | > 100 µM (inactive) | > 100 µM (inactive) |  | > 100 µM (inactive) |  | > 100 µM (inactive) |  | > 100 µM (inactive) | > 100 µM (inactive) | > 100 µM (inactive) | > 100 µM (inactive) | > 100 µM (inactive) |
| Oc1ccc2ccccc2c1/N=N/c1cc(Cl)ccc1Cl |  | 15.6 µM (inactive) | > 50 | 10 µM (inactive) | 19.3 µM (inactive) | 7.67 µM (inactive) | 11.8 µM (inactive) | 31.6 µM (inactive) | 19.5 µM (inactive) | 10.4 µM (inactive) | > 50 µM (inactive) | 11.3 µM (inactive) |  | 32.6 µM (inactive) |  | 22.6 µM (inactive) | 38.5 µM (inactive) |
| CC(=O)N(CN1C(=O)CCC1C(=O)O)c1ccccc1Cl (stereo unspecified) | > 100 µM (inactive) | > 100 µM (inactive) | > 100 | > 100 µM (inactive) | > 100 µM (inactive) | > 100 µM (inactive) | > 100 µM (inactive) | > 100 µM (inactive) | > 100 µM (inactive) | > 100 µM (inactive) | > 100 µM (inactive) | > 100 µM (inactive) |  | > 100 µM (inactive) | > 100 µM (inactive) | > 100 µM (inactive) | > 100 µM (inactive) |
| COc1c(C2(c3ccc(F)cc3)SCCCS2)c(=O)c1=O | > 100 µM (inactive) | > 100 µM (inactive) | > 100 | > 100 µM (inactive) | > 100 µM (inactive) |  | > 100 µM (inactive) | > 100 µM (inactive) | > 100 µM (inactive) | > 100 µM (inactive) | > 100 µM (inactive) | > 100 µM (inactive) |  | > 100 µM (inactive) |  | 31.6 µM (inactive) | > 100 µM (inactive) |
| CCOC(=O)Oc1ccc2c(c1)c(=O)c1c(NCCN(CC)CC)ccc3nnn2c31 | 1.89 µM (inactive) | 0.405 µM (active) | 0.841 | 1.24 µM (inactive) | 1.29 µM (inactive) | 0.519 µM (active) | 2.48 µM (inactive) | 2.39 µM (inactive) | 4.46 µM (inactive) | 0.577 µM (active) | 0.908 µM (active) |  | 0.113 µM (active) | 0.438 µM (active) | 14.8 µM (inactive) |  | 1.7 µM (inactive) |
| COc1ccc(-c2c3c(n(C4OC(CO)C(O)C(O)C4O)c(=S)c2C#N)CCCC3)cc1 (stereo unspecified) |  | > 100 µM (inactive) | > 100 | > 100 µM (inactive) | > 100 µM (inactive) | > 100 µM (inactive) | > 100 µM (inactive) | > 100 µM (inactive) | > 100 µM (inactive) | > 100 µM (inactive) |  | 0.355 µM (active) | > 100 µM (inactive) | > 100 µM (inactive) | 58.5 µM (inactive) | 72.9 µM (inactive) | 62.2 µM (inactive) |
| CC1OC(OC2C(O[C@H]3CC[C@@]4(C)C(=CC[C@H]5[C@@H]6C[C@@H]7O[C@]8(CC[C@@H](CO)CO8)[C@@H](C)[C@@H]7[C@@]6(C)CC[C@@H]54)C3)OC(CO)C(O)C2OC2OC(CO)C(O)C(O)C2O)C(O)C(O)C1O (stereo partly specified) | 1.84 µM (inactive) | 1.65 µM (inactive) | 1.91 | 1.72 µM (inactive) | 2.1 µM (inactive) | 1.95 µM (inactive) | 1.79 µM (inactive) | 1.97 µM (inactive) |  | 1.78 µM (inactive) | 1.94 µM (inactive) | 1.58 µM (inactive) |  | 1.86 µM (inactive) | 1.87 µM (inactive) | 1.44 µM (inactive) | 1.64 µM (inactive) |
| COc1ccc(Nc2nc3ccc(C(F)(F)F)cc3nc2C(=O)O)cc1OC | 28.6 µM (inactive) | 25.9 µM (inactive) | 25.9 | 25.2 µM (inactive) | 38.4 µM (inactive) | 34.3 µM (inactive) | 37.9 µM (inactive) | 20.2 µM (inactive) | 17.9 µM (inactive) | 23.2 µM (inactive) |  | 35.8 µM (inactive) | 18.9 µM (inactive) | 29.2 µM (inactive) |  | 29.9 µM (inactive) | 20.1 µM (inactive) |
| COC(=O)C(=O)C(C(=O)C(=O)Nc1ccc(C)c(C)c1)c1nc2ccc([N+](=O)[O-])cc2nc1O (stereo unspecified) |  | > 100 µM (inactive) | > 100 | > 100 µM (inactive) | > 100 µM (inactive) | > 100 µM (inactive) | > 100 µM (inactive) | > 100 µM (inactive) | > 100 µM (inactive) | > 100 µM (inactive) | > 100 µM (inactive) | > 100 µM (inactive) | > 100 µM (inactive) | > 100 µM (inactive) | > 100 µM (inactive) | > 100 µM (inactive) | > 100 µM (inactive) |
